What was measured:
Experiment in all cases: Kinase selectivity, scanMAX Kinase assay panel (DiscoverX), % control at 1 uM
Assay type in all cases: binding
[1] = target: T1, scanMAX Kinase assay panel (Homo sapiens, UniProt Q99759); settings: MAP3K3; 1 uM; read-out: Percent Control (%)
T1 construct: purchased DiscoverX
T1 sequence (Q99759 1-626): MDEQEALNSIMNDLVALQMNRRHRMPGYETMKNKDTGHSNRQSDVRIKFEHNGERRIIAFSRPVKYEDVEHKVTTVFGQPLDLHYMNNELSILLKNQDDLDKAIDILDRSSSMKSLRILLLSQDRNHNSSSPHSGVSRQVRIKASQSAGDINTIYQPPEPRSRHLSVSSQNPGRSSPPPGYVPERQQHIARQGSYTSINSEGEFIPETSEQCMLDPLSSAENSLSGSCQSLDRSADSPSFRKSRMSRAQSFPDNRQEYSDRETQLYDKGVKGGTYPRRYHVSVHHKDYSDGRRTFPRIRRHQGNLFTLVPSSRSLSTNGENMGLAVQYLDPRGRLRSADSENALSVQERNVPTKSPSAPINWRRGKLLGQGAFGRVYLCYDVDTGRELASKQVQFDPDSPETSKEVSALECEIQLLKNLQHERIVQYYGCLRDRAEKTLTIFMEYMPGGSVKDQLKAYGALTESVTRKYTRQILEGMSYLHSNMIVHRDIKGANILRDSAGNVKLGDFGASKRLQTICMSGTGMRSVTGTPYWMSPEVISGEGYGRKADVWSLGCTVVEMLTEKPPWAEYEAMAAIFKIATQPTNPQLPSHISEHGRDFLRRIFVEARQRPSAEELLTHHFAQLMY
How it was run: (§1)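 Each kinase was first exposed to the test compound at 1 uM in DMSO. Signal was then normalised to positive and negative controls to give % control. Finally, any enzyme showing <35% control was judged inhibited.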

[2] = target: T2, scanMAX Kinase assay panel (Homo sapiens, UniProt P0C1S8); settings: WEE2; 1 uM; read-out: Percent Control (%)
T2 construct: purchased DiscoverX
How it was run: as §1

[3] = target: T3, scanMAX Kinase assay panel (Homo sapiens, UniProt P00519, E255K); settings: ABL1 (E255K)-phosphorylated; 1 uM; read-out: Percent Control (%)
T3 construct: purchased DiscoverX
How it was run: as §1

[4] = target: T4, scanMAX Kinase assay panel (Homo sapiens, UniProt Q13873); settings: BMPR2; 1 uM; read-out: Percent Control (%)
T4 construct: purchased DiscoverX
T4 sequence (Q13873 27-1038): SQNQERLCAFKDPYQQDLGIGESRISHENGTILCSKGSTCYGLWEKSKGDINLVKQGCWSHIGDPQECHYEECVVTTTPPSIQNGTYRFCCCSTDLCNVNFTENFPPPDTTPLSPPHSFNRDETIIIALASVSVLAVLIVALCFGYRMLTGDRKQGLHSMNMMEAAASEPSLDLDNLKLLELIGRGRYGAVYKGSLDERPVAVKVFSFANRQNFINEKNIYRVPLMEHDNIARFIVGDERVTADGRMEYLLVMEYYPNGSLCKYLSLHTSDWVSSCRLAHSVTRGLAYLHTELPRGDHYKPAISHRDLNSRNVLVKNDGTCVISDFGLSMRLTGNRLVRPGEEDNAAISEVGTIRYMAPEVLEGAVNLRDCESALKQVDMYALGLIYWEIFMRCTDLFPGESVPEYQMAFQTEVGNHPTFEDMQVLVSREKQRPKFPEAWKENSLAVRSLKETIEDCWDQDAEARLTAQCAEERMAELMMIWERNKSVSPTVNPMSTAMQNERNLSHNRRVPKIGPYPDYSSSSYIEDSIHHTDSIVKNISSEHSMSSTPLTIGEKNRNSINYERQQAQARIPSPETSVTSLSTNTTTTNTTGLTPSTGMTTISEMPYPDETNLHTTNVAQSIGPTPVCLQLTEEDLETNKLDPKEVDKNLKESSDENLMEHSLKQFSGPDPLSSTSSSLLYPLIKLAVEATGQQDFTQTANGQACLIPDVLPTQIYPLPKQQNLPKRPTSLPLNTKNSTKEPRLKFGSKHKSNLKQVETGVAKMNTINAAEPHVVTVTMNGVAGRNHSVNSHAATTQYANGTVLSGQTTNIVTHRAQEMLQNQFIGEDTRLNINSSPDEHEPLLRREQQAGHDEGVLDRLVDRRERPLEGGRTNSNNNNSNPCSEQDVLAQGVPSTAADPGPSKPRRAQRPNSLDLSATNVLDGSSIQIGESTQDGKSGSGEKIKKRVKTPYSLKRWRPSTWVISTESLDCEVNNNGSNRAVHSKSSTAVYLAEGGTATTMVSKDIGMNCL
How it was run: as §1

[5] = target: T5, scanMAX Kinase assay panel (Homo sapiens, UniProt P25098); settings: GRK2; 1 uM; read-out: Percent Control (%)
T5 construct: purchased DiscoverX
T5 sequence (P25098 1-689): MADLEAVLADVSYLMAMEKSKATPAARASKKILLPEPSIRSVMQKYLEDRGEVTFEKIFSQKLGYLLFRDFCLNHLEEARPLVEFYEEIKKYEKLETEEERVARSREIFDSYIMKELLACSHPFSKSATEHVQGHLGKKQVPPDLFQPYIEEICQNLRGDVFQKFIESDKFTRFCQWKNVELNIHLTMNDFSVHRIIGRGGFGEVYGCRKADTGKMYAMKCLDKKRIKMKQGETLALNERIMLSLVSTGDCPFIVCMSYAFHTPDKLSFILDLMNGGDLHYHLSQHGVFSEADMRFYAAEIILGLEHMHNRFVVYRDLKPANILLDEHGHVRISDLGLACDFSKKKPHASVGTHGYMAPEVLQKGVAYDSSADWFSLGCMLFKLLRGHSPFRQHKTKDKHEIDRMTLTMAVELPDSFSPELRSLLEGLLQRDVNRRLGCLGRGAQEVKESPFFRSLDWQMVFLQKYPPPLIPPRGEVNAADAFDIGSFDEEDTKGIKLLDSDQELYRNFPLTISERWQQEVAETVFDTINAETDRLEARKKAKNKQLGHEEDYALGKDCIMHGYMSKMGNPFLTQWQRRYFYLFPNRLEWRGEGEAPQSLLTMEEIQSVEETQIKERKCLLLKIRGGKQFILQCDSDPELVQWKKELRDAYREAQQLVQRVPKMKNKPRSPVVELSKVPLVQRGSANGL
How it was run: as §1

T3 sequence (P00519 whole entry E255K): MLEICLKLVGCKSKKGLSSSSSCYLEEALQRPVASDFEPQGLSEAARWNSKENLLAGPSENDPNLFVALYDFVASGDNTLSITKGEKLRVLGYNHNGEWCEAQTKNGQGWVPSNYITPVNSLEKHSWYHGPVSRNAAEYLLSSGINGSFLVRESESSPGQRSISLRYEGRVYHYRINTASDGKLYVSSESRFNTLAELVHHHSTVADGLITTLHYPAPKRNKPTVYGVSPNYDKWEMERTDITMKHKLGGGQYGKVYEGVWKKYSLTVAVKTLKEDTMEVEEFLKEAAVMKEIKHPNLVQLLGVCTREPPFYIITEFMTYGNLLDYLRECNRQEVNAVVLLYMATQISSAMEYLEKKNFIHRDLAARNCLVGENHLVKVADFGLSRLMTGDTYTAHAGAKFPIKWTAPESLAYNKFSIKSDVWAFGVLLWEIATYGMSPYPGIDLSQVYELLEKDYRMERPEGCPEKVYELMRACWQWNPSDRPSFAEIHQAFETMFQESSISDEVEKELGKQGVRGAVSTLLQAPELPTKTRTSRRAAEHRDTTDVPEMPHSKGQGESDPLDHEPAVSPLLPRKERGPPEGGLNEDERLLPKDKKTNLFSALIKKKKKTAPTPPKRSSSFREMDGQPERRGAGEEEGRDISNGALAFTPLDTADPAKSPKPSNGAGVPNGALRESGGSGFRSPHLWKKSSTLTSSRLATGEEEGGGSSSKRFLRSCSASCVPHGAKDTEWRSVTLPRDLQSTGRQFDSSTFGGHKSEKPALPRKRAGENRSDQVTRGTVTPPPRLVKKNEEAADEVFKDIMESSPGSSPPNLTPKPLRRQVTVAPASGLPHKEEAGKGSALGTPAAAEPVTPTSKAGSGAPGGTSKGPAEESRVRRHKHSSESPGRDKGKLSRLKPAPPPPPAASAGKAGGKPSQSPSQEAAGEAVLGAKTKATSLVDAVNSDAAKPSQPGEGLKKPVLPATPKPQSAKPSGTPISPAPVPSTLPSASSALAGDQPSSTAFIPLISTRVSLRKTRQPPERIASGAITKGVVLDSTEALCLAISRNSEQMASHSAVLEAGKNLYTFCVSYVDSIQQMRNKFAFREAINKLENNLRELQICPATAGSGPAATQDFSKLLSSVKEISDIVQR
T2 sequence (P0C1S8 whole entry): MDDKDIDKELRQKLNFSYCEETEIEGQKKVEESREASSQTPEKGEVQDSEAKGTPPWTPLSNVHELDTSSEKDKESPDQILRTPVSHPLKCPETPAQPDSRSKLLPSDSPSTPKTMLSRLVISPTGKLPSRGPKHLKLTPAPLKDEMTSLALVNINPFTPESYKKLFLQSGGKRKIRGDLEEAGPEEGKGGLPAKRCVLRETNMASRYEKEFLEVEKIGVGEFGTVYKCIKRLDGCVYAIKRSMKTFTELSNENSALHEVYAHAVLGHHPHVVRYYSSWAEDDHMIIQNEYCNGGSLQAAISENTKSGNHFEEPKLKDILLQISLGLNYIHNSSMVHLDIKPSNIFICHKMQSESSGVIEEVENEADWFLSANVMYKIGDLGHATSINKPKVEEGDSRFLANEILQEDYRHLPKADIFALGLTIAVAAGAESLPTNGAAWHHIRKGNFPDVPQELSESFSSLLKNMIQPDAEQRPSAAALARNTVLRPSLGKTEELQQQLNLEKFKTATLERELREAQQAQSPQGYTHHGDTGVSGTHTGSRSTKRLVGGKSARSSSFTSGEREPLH

Cc1ccc(C(=O)Nc2ccc(CN3CCN(C)CC3)c(C(F)(F)F)c2)cc1C#Cc1cnc2c(Nc3cnn(C)c3)cccn12 [Example 1, 4-methyl-3-((8-((1-methyl-1H-pyrazol-4-yl)amino)imidazo[1,2-a]pyridin-3-yl)ethynyl)-N-(4-((4-methylpiperazin-1-yl)methyl)-3-(trifluoromethyl)phenyl)benzamide]
remaining binding at 1 µM [1]: 0% | remaining binding at 1 µM [2]: 60% | remaining binding at 1 µM [3]: 0% | remaining binding at 1 µM [4]: 82% | remaining binding at 1 µM [5]: 84%

Cc1cn(-c2cc(NC(=O)c3ccc(C)c(C#Cc4cnc5c(Nc6cnn(C)c6)cccn45)c3)cc(C(F)(F)F)c2)cn1 [Example 12, 4-methyl-N-(3-(4-methyl-1H-imidazol-1-yl)-5-(trifluoromethyl)phenyl)-3-((8-((1-methyl-1H-pyrazol-4-yl)amino)imidazo[1,2-a]pyridin-3-yl)ethynyl)benzamide]
remaining binding at 1 µM [1]: 33% | remaining binding at 1 µM [2]: 80% | remaining binding at 1 µM [3]: 8% | remaining binding at 1 µM [4]: 100% | remaining binding at 1 µM [5]: 100%

Cc1ccc(NC(=O)C2(C(=O)Nc3ccc(F)cc3)CC2)cc1C#Cc1cnc2c(Nc3cnn(C(C)C)c3)cccn12 [Example 78]
remaining binding at 1 µM [1]: 77% | remaining binding at 1 µM [2]: 100% | remaining binding at 1 µM [3]: 84% | remaining binding at 1 µM [4]: 84% | remaining binding at 1 µM [5]: 96%

Source: patent US10870647B2, “Imidazopyridine derivative, method for preparing same, and pharmaceutical composition containing same as active ingredient for preventing or treating cancer” (DAEGU-GYEONGBUK MEDICAL INNOVATION FOUNDATION, priority 2016, dated 2020)
